ChEMBL document CHEMBL4680202, “Development, synthesis and biological investigation of a novel class of potent PC-PLC inhibitors” (Eur J Med Chem, 2020)

Each molecule was assayed on Bacillus cereus (assay: Inhibition of Bacillus cereus PC-PLC assessed as residual activity at 10 uM using phosphatidylcholine as substrate measured after 1 hr by horseradish peroxidase/alkaline phosphatase/choline oxidase-coupled amplex red reagent based fluorescence assay relative to control).
For Fc1ccccc1CNc1ccc(N2CCCCC2)cc1, the Activity was 9%. c1ccc(Oc2cccc(CNc3ccc(N4CCOCC4)cc3)c2)cc1 showed an Activity of 39.3%. Work on COC(=O)c1cc(NCc2cccc(C)c2)ccc1N1CCOCC1 yielded an Activity of 54%. Cc1ccccc1CNc1ccc(N2CCNCC2)cc1 showed an Activity of 29.3%. In the case of Cc1cccc(CNc2ccc(N3CCOCC3)c(C(=O)O)c2)c1, the Activity is reported as 23.7%. Molecule O=C(O)c1cc(NCc2ccccc2Br)ccc1N1CCOCC1 has an Activity of 40.4%. COc1ccccc1CNc1ccc(N2CCN(C)CC2)cc1 gave an Activity of 29.3%. With CN1CCN(c2ccc(NCc3ccc(O)cc3)cc2)CC1 the Activity was 9.4%. O=C(O)c1cc(NCc2cccc(O)c2)ccc1N1CCOCC1 gave an Activity of 41.6%. Molecule Cc1cc(C)c(CNc2ccc(N3CCOCC3)c(C(=O)O)c2)c(C)c1 has an Activity of 45.3%. With COC(=O)c1cc(NCc2cccc(F)c2)ccc1N1CCOCC1 the Activity was 64.5%. O=C(O)c1cc(NCc2ccc(Cl)cc2)ccc1N1CCOCC1 was tested, and the Activity was 26.7%. Molecule Clc1ccc(CNc2ccc(N3CCCCC3)cc2)cc1 has an Activity of 23%. COC(=O)c1cc(NCc2ccc(C)cc2)ccc1N1CCOCC1 showed an Activity of 54.3%. COC(=O)c1cc(NCc2ccccc2Br)ccc1N1CCOCC1 was tested, and the Activity was 56.7%. In the case of Cc1ccccc1CNc1ccc(N2CCOCC2)cc1, the Activity is reported as 2.2%. With COC(=O)c1cc(NCc2ccc(O)cc2)ccc1N1CCOCC1 the Activity was 48.3%. Clc1ccccc1CNc1ccc(N2CCCCC2)cc1 was tested, and the Activity was 22.6%. O=C(O)c1cc(NCc2ccccc2C(F)(F)F)ccc1N1CCOCC1 showed an Activity of 34.1%. Oc1ccccc1CNc1ccc(N2CCNCC2)cc1 gave an Activity of 37.9%. With Oc1ccccc1CNc1ccc(N2CCCCC2)cc1 the Activity was 14.8%. Cc1ccccc1CNc1ccc(N2CCCCC2)cc1 gave an Activity of 14.7%. Work on COC(=O)c1cc(NCc2cccc(Cl)c2)ccc1N1CCOCC1 yielded an Activity of 65.6%. In the case of COC(=O)c1cc(NCc2ccc(F)cc2)ccc1N1CCOCC1, the Activity is reported as 48.9%. Work on Cc1ccc(CNc2ccc(N3CCOCC3)cc2)cc1 yielded an Activity of 5.4%. COC(=O)c1cc(NCc2cccc(OC)c2)ccc1N1CCOCC1 gave an Activity of 64.6%. Clc1cccc(CNc2ccc(N3CCOCC3)cc2)c1 gave an Activity of 9.1%. CC(C)(C)OC(=O)N1CCN(c2ccc(NCc3ccc(Cl)cc3)cc2)CC1 gave an Activity of 53.3%. COC(=O)c1cc(NCc2ccc(C(F)(F)F)cc2)ccc1N1CCOCC1 gave an Activity of 78.6%. In the case of Cc1ccccc1CNc1ccc(N2CCN(C)CC2)cc1, the Activity is reported as 40.9%. In the case of Oc1ccc(CNc2ccc(N3CCNCC3)cc2)cc1, the Activity is reported as 51.3%. COC(=O)c1cc(NCc2cccc(Oc3ccccc3)c2)ccc1N1CCOCC1 showed an Activity of 130%. For FC(F)(F)c1ccccc1CNc1ccc(N2CCCCC2)cc1, the Activity was 49.3%. Fc1ccccc1CNc1ccc(N2CCNCC2)cc1 was tested, and the Activity was 24.1%. CC(C)(C)OC(=O)N1CCN(c2ccc(NCc3ccccc3)cc2)CC1 showed an Activity of 42.3%. COC(=O)c1cc(NCc2ccc(Cl)cc2)ccc1N1CCOCC1 was tested, and the Activity was 87.5%. CC(C)(C)OC(=O)N1CCN(c2ccc(NCc3cccc(F)c3)cc2)CC1 gave an Activity of 33.5%. Work on COc1ccccc1CNc1ccc(N2CCNCC2)cc1 yielded an Activity of 27.7%. COc1cccc(CNc2ccc(N3CCOCC3)c(C(=O)O)c2)c1 was tested, and the Activity was 28.1%. O=C(O)c1cc(NCc2ccccc2F)ccc1N1CCOCC1 gave an Activity of 29.9%. O=C(O)c1cc(NCc2ccccc2O)ccc1N1CCOCC1 was tested, and the Activity was 40%. Brc1cccc(CNc2ccc(N3CCOCC3)cc2)c1 showed an Activity of 11.6%. For COC(=O)c1cc(NCc2cccc(O)c2)ccc1N1CCOCC1, the Activity was 52.8%. Molecule Oc1cccc(CNc2ccc(N3CCNCC3)cc2)c1 has an Activity of 30.9%. Molecule COc1ccc(CNc2ccc(N3CCOCC3)c(C(=O)O)c2)cc1 has an Activity of 32.3%. With O=C(O)c1cc(NCc2ccccc2Cl)ccc1N1CCOCC1 the Activity was 11.5%. With COC(=O)c1cc(NCc2ccccc2Cl)ccc1N1CCOCC1 the Activity was 73.1%. In the case of COC(=O)c1cc(NCc2ccccc2)ccc1N1CCOCC1, the Activity is reported as 57.7%. In the case of CC(C)(C)OC(=O)N1CCN(c2ccc(NCc3ccc(F)cc3)cc2)CC1, the Activity is reported as 68.3%. Work on COC(=O)c1cc(NCc2c(C)cc(C)cc2C)ccc1N1CCOCC1 yielded an Activity of 96.8%. Work on Brc1ccccc1CNc1ccc(N2CCCCC2)cc1 yielded an Activity of 28%. Molecule CC(C)(C)OC(=O)N1CCN(c2ccc(NCc3ccccc3F)cc2)CC1 has an Activity of 29.4%. Work on COC(=O)c1cc(NCc2ccccc2F)ccc1N1CCOCC1 yielded an Activity of 56.8%. Oc1ccc(CNc2ccc(N3CCOCC3)cc2)cc1 gave an Activity of 6.5%. Brc1ccc(CNc2ccc(N3CCOCC3)cc2)cc1 was tested, and the Activity was 18.1%. Work on c1ccc(CNc2ccc(N3CCNCC3)cc2)cc1 yielded an Activity of 26.3%. Molecule Fc1ccc(CNc2ccc(N3CCCCC3)cc2)cc1 has an Activity of 6.6%. Work on Cc1ccc(CNc2ccc(N3CCOCC3)c(C(=O)O)c2)cc1 yielded an Activity of 33.4%. Work on COc1ccc(CNc2ccc(N3CCOCC3)cc2)cc1 yielded an Activity of 3.2%. Cc1cccc(CNc2ccc(N3CCOCC3)cc2)c1 showed an Activity of 8.3%. With CC(C)(C)OC(=O)N1CCN(c2ccc(NCc3ccccc3O)cc2)CC1 the Activity was 26.5%. With COC(=O)c1cc(NCc2ccccc2C)ccc1N1CCOCC1 the Activity was 58.4%. For CN1CCN(c2ccc(NCc3cccc(Cl)c3)cc2)CC1, the Activity was 19.5%. In the case of CN1CCN(c2ccc(NCc3ccccc3Br)cc2)CC1, the Activity is reported as 20%. With CC(C)(C)OC(=O)N1CCN(c2ccc(NCc3ccccc3Cl)cc2)CC1 the Activity was 43.2%. In the case of CC(C)(C)OC(=O)N1CCN(c2ccc(NCc3ccccc3C(F)(F)F)cc2)CC1, the Activity is reported as 41.3%. Work on Oc1cccc(CNc2ccc(N3CCOCC3)cc2)c1 yielded an Activity of 3.4%. In the case of COC(=O)c1cc(NCc2ccccc2C(F)(F)F)ccc1N1CCOCC1, the Activity is reported as 83%. COC(=O)c1cc(NCc2ccc(-c3ccccc3)cc2)ccc1N1CCOCC1 was tested, and the Activity was 100%. With Clc1ccccc1CNc1ccc(N2CCNCC2)cc1 the Activity was 31%. With Cc1ccccc1CNc1ccc(N2CCOCC2)c(C(=O)O)c1 the Activity was 35%. Work on COc1cccc(CNc2ccc(N3CCOCC3)cc2)c1 yielded an Activity of 5.6%. For O=C(O)c1cc(NCc2cccc(Br)c2)ccc1N1CCOCC1, the Activity was 20.4%. Work on CN1CCN(c2ccc(NCc3ccccc3O)cc2)CC1 yielded an Activity of 13.4%. Oc1ccccc1CNc1ccc(N2CCOCC2)cc1 was tested, and the Activity was 0%. Fc1ccc(CNc2ccc(N3CCOCC3)cc2)cc1 gave an Activity of 1.8%. Work on c1ccc(CNc2ccc(N3CCCCC3)cc2)cc1 yielded an Activity of 8.1%. For COC(=O)c1cc(NCc2cccc(C(F)(F)F)c2)ccc1N1CCOCC1, the Activity was 64.1%. COc1ccccc1CNc1ccc(N2CCN(C(=O)OC(C)(C)C)CC2)cc1 showed an Activity of 19.9%. For CN1CCN(c2ccc(NCc3ccc(F)cc3)cc2)CC1, the Activity was 23.9%. With CN1CCN(c2ccc(NCc3ccccc3F)cc2)CC1 the Activity was 42.7%. For CN1CCN(c2ccc(NCc3ccccc3Cl)cc2)CC1, the Activity was 29.7%. Work on Brc1ccccc1CNc1ccc(N2CCOCC2)cc1 yielded an Activity of 14.1%. Molecule O=C(O)c1cc(NCc2ccc(-c3ccccc3)cc2)ccc1N1CCOCC1 has an Activity of 40.1%. Molecule Clc1ccc(CNc2ccc(N3CCNCC3)cc2)cc1 has an Activity of 31.3%. FC(F)(F)c1ccccc1CNc1ccc(N2CCNCC2)cc1 showed an Activity of 30.4%. O=C(O)c1cc(NCc2ccccc2)ccc1N1CCOCC1 was tested, and the Activity was 32.5%. Oc1cccc(CNc2ccc(N3CCCCC3)cc2)c1 gave an Activity of 7.6%. Cc1ccccc1CNc1ccc(N2CCN(C(=O)OC(C)(C)C)CC2)cc1 was tested, and the Activity was 32.2%. With Clc1cccc(CNc2ccc(N3CCNCC3)cc2)c1 the Activity was 27.4%. Cc1cc(C)c(CNc2ccc(N3CCOCC3)cc2)c(C)c1 showed an Activity of 28.9%. Fc1ccc(CNc2ccc(N3CCNCC3)cc2)cc1 was tested, and the Activity was 21.1%. In the case of CC(C)(C)OC(=O)N1CCN(c2ccc(NCc3cccc(O)c3)cc2)CC1, the Activity is reported as 18.4%. Molecule CC(C)(C)OC(=O)N1CCN(c2ccc(NCc3ccccc3Br)cc2)CC1 has an Activity of 35.6%. With COC(=O)c1cc(NCc2ccc(OC)cc2)ccc1N1CCOCC1 the Activity was 58.9%. O=C(O)c1cc(NCc2ccc(O)cc2)ccc1N1CCOCC1 gave an Activity of 43.8%. Molecule CC(C)(C)OC(=O)N1CCN(c2ccc(NCc3ccc(O)cc3)cc2)CC1 has an Activity of 23.9%. Oc1ccc(CNc2ccc(N3CCCCC3)cc2)cc1 showed an Activity of 11%. CC(C)(C)OC(=O)N1CCN(c2ccc(NCc3cccc(Cl)c3)cc2)CC1 gave an Activity of 36.8%. COc1ccccc1CNc1ccc(N2CCOCC2)c(C(=O)O)c1 gave an Activity of 32.5%. Molecule Fc1cccc(CNc2ccc(N3CCNCC3)cc2)c1 has an Activity of 26%. COC(=O)c1cc(NCc2cccc(Br)c2)ccc1N1CCOCC1 gave an Activity of 60.9%. O=C(O)c1cc(NCc2ccc(F)cc2)ccc1N1CCOCC1 gave an Activity of 30.3%. O=C(O)c1cc(NCc2ccc(C(F)(F)F)cc2)ccc1N1CCOCC1 gave an Activity of 45.5%. CN1CCN(c2ccc(NCc3cccc(F)c3)cc2)CC1 showed an Activity of 44.2%. Work on Clc1cccc(CNc2ccc(N3CCCCC3)cc2)c1 yielded an Activity of 24.7%. COc1ccccc1CNc1ccc(N2CCOCC2)cc1 was tested, and the Activity was 1.2%. Molecule O=C(O)c1cc(NCc2cccc(C(F)(F)F)c2)ccc1N1CCOCC1 has an Activity of 44.6%. Molecule FC(F)(F)c1ccc(CNc2ccc(N3CCOCC3)cc2)cc1 has an Activity of 27.6%. For O=C(O)c1cc(NCc2ccc(Br)cc2)ccc1N1CCOCC1, the Activity was 28.7%. COc1ccccc1CNc1ccc(N2CCCCC2)cc1 was tested, and the Activity was 9.9%. In the case of O=C(O)c1cc(NCc2cccc(F)c2)ccc1N1CCOCC1, the Activity is reported as 49.5%. COC(=O)c1cc(NCc2ccccc2O)ccc1N1CCOCC1 gave an Activity of 38.6%. With O=C(O)c1cc(NCc2cccc(Oc3ccccc3)c2)ccc1N1CCOCC1 the Activity was 47.5%. Work on CN1CCN(c2ccc(NCc3ccccc3C(F)(F)F)cc2)CC1 yielded an Activity of 25.4%. For Fc1cccc(CNc2ccc(N3CCCCC3)cc2)c1, the Activity was 10.7%. Clc1ccccc1CNc1ccc(N2CCOCC2)cc1 was tested, and the Activity was 7.9%. Molecule CN1CCN(c2ccc(NCc3ccccc3)cc2)CC1 has an Activity of 31.5%. In the case of Brc1ccccc1CNc1ccc(N2CCNCC2)cc1, the Activity is reported as 26.8%. CN1CCN(c2ccc(NCc3ccc(Cl)cc3)cc2)CC1 was tested, and the Activity was 16.6%. With COC(=O)c1cc(NCc2ccccc2OC)ccc1N1CCOCC1 the Activity was 43.7%. CN1CCN(c2ccc(NCc3cccc(O)c3)cc2)CC1 gave an Activity of 12.7%. For COC(=O)c1cc(NCc2ccc(Br)cc2)ccc1N1CCOCC1, the Activity was 77.3%. With c1ccc(CNc2ccc(N3CCOCC3)cc2)cc1 the Activity was 0%. Work on FC(F)(F)c1cccc(CNc2ccc(N3CCOCC3)cc2)c1 yielded an Activity of 23.4%. With Fc1cccc(CNc2ccc(N3CCOCC3)cc2)c1 the Activity was 6.1%.
